# US9670142B2, “1,3-diaminocyclopentane carboxamide derivatives” (Merck Patent GmbH, priority 2013, dated 2017)
# Target: human fatty acid synthase FASN (Homo sapiens (Human), UniProt P49327)
# Experiment: Biochemical activity testing of human fatty acid synthase FASN (NADPH fluorescence intensity enzyme assay)
# Conditions: human recombinant full-length fatty acid synthase
# Excerpt: Biochemical activity testing of human fatty acid synthase FASN
# Fatty acid synthase FASN is a multifunctional enzyme with seven catalytic activities thereby synthesising long chain fatty acids especially palmitoyl-CoA in the presence of co-factor NADPH starting from the substrates acetyl-CoA and malonyl-CoA. The reductive synthesis is realized by the oxidation of NADPH to NADP. Since NADPH has a high fluorescence intensity quantum yield compared to NADP with excitation at 340 nm and emission at 460 nm, the reaction can be monitored via the decrease in fluorescence intensity. The biochemical FASN activity testing was performed as 384 well two-time-point kinetic fluorescence intensity assay format in Greiner low volume medium binding 384-well black microtiter plates in a total assay volume of 8 μl and was used for high throughput screen. In each well 3 μl 40 nM human recombinant full-length fatty acid synthase (produced in-house in SF9 cells) were dispensed in the following assay buffer: 50 mM potassium phosphate buffer pH 7.0, 0.005% (w/v) BSA, 2 mM Glutathione, 0.02% Tween-20. Then 2 μl of 200 μM NADPH in assay buffer were added, followed by the addition of the test compounds in 10 dilution concentrations starting with 30 μM (final concentration) to get a final DMSO content of 1% (v/v). The mixture was incubated for at least 15 min at room temperature. After the pre-incubation the enzymatic reaction was started by the addition of 2 μl substrate solution (80 μM acetyl-CoA, 240 μM malonyl-CoA). A first fluorescence intensity measurement (time point one) was performed with an Envision multimode reader (Perkin Elmer LAS Germany GmbH) at excitation wavelength 340 nm (lamp mode) and emission wavelength 460 nm. The reaction was incubated for 30 minutes at room temperature. After this the fluorescence intensity was measured again in the Envision using the same parameters as described above (second time point measurement). The data were analysed by subtracting the first time point measurement value from the second time point measurement value (after the enzymatic reaction). The differences of the emission signals were determined. These reflect directly the conversion rate of NADPH. The full value used was the inhibitor-free reaction. A pharmacological zero value was used like GSK837149A (Sigma-Aldrich) in a final concentration of 5-10 μM. The inhibitory values (IC50) were determined using either the program Symyx Assay Explorer® or Condosseo® from GeneData.
# Sequence of human fatty acid synthase FASN (P49327 whole entry): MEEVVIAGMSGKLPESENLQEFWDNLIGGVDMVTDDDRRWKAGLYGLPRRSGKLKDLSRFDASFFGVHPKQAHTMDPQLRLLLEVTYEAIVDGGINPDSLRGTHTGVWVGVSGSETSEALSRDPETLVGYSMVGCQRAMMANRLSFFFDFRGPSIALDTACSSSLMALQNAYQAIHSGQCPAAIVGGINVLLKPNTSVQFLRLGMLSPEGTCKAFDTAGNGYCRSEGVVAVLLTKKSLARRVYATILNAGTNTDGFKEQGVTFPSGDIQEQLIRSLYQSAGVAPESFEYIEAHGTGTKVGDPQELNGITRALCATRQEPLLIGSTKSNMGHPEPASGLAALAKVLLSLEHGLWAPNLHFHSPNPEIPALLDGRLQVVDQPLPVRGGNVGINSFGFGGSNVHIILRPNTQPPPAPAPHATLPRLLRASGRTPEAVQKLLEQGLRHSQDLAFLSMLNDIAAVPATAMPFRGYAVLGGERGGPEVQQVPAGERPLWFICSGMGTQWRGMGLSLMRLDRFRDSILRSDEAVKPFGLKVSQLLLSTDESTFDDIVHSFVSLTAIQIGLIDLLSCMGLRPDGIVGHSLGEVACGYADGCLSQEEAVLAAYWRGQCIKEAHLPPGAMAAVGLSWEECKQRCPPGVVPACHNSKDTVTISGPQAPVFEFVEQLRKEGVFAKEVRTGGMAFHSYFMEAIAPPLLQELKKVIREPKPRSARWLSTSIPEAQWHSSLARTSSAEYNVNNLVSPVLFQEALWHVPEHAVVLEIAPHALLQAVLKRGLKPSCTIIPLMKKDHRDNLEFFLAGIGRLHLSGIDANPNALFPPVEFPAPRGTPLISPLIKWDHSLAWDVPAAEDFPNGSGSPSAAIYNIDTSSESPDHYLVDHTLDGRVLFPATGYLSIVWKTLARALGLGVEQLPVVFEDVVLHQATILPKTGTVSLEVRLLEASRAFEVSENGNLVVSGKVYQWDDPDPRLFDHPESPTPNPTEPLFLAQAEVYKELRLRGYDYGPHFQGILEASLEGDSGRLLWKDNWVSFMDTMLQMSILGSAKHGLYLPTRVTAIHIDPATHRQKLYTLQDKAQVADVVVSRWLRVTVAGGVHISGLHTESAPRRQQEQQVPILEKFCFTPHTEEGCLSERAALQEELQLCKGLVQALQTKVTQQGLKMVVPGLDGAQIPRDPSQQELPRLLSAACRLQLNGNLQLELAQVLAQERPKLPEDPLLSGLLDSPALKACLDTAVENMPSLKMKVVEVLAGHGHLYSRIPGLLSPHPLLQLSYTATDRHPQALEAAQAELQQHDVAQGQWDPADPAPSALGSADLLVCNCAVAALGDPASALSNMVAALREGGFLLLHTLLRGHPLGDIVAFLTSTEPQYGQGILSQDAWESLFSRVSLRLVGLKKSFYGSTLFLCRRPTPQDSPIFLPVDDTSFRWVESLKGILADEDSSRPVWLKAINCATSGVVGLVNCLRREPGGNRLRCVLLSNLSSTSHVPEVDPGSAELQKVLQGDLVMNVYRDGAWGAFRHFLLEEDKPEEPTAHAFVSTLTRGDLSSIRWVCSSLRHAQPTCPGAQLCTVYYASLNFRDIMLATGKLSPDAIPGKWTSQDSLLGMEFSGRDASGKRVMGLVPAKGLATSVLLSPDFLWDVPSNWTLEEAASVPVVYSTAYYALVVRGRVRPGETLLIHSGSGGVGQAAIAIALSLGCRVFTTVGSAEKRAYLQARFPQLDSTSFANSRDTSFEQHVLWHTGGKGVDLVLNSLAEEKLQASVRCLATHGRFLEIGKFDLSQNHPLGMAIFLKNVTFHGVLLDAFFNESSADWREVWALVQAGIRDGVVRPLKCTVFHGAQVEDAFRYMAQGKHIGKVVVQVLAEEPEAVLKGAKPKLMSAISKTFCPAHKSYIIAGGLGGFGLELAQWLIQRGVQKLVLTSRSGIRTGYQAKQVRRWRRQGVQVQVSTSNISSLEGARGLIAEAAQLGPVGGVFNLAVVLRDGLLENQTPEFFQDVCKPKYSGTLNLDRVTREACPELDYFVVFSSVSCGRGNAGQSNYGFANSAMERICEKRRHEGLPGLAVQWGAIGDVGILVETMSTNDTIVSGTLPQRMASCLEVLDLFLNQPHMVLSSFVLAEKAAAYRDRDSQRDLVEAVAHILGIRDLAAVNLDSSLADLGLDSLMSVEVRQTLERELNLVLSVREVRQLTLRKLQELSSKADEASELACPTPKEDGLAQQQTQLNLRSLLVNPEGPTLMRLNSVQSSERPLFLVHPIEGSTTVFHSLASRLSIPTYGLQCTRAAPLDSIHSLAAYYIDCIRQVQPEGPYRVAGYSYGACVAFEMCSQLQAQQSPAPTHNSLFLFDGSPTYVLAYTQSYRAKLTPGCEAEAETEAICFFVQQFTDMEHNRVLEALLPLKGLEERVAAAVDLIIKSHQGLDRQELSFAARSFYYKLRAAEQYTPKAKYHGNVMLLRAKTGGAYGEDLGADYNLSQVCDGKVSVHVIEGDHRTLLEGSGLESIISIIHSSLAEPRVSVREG
row,Structure (SMILES),IC50 [µM]
1,"CCC(=O)N[C@H]1CC[C@@H](N(C)C(=O)c2ccc(-c3ccncc3)cc2)C1 [Compound A4, N-methyl-N-((1R,3S)-3-propionylamino-cyclopentyl)-4-pyridin-4-yl-benzamide]",< 0.3
2,"CCC(=O)N[C@H]1CC[C@@H](N(C)C(=O)c2ccc(-c3ccc(C(C)C)cc3)cc2)C1 [Compound A96, 4′-isopropyl-biphenyl-4-carboxylic acid methyl-((1R,3S)-3-propionylamino-cyclopentyl)-amide]",0.3 to 3
3,"CC[C@@H](C)CC(=O)N[C@@H]1CC[C@@H](N(C)C(=O)c2ccc(-c3nc4ccccc4o3)cc2)C1 [Compound A168, 4-benzoxazol-2-yl-N-methyl-N-[(1R,3R)-3-((R)-3-methyl-pentanoylamino)-cyclopentyl]-benzamide]",3 to 50
4,"CC(=O)N[C@@H](C(=O)N[C@H]1CC[C@@H](N(C)C(=O)c2ccc(-c3nc4ccccc4o3)cc2)C1)C(C)C [Compound A42, N-[(1R,3S)-3-((R)-2-acetylamino-3-methyl-butyrylamino)-cyclopentyl]-4-benzoxazol-2-yl-N-methyl-benzamide]",3 to 50
5,"CN(C(=O)c1ccc(-c2nc3ccccc3o2)cc1)[C@@H]1CC[C@H](NC(=O)C2(C)CC2)C1 [Compound A3, 4-benzoxazol-2-yl-N-methyl-N-{(1R,3S)-3-[(1-methyl-cyclopropanecarbonyl)-amino]-cyclopentyl}-benzamide]",< 0.3
6,"CN(C(=O)c1ccc(-c2nc3ccccc3o2)cc1)[C@@H]1CC[C@H](NC(=O)Cc2ccccc2)C1 [Compound A23, 4-benzoxazol-2-yl-N-methyl-N-((1R,3S)-3-phenylacetylamino-cyclopentyl)-benzamide]",< 0.3
7,"CCC(=O)N[C@H]1CC[C@@H](N(C)C(=O)c2ccc(-c3cn4cccnc4n3)cc2)C1 [Compound A10, 4-imidazo[1,2-a]pyrimidin-2-yl-N-methyl-N-((1R,3S)-3-propionylamino-cyclopentyl)-benzamide]",< 0.3
8,"CCC(=O)N[C@H]1CC[C@@H](N(C)C(=O)c2ccc(-c3ccc(OC)c(OC)c3)cc2)C1 [Compound A56, 3′,4′-dimethoxy-biphenyl-4-carboxylic acid methyl-((1R,3S)-3-propionylamino-cyclopentyl)-amide]",< 0.3
9,"CN(C(=O)c1ccc(-c2nc3ccccc3o2)cc1)[C@@H]1CC[C@H](NC(=O)C[C@@H]2CCC(=O)N2)C1 [Compound A45, 4-benzoxazol-2-yl-N-methyl-N-{(1R,3S)-3-[2-((S)-5-oxo-pyrrolidin-2-yl)-acetylamino]-cyclopentyl}-benzamide]",3 to 50
10,"CCC(=O)N[C@H]1CC[C@@H](N(C)C(=O)c2ccc(-c3ccc(Cl)c(F)c3)cc2)C1 [Compound A86, 4′-chloro-3′-fluoro-biphenyl-4-carboxylic acid methyl-((1R,3S)-3-propionylamino-cyclopentyl)-amide]",< 0.3
11,"CN(C(=O)c1ccc(-c2nc3ccccc3o2)cc1)[C@@H]1CC[C@H](NC(=O)C2CCCC2)C1 [Compound A21, 4-benzoxazol-2-yl-N-[(1R,3S)-3-(cyclopentanecarbonyl-amino)-cyclopentyl]-N-methyl-benzamide]",< 0.3
12,"CCC(=O)N[C@H]1CC[C@@H](N(C)C(=O)c2ccc(-c3ccc(OC)cc3)cc2)C1 [Compound A82, 4′-methoxy-biphenyl-4-carboxylic acid methyl-((1R,3S)-3-propionylamino-cyclopentyl)-amide]",< 0.3
13,"CCC(=O)N[C@H]1CC[C@@H](N(C)C(=O)c2ccc(-c3ccc(OC(F)(F)F)cc3)cc2)C1 [Compound A62, 4′-trifluoromethoxy-biphenyl-4-carboxylic acid methyl-((1R,3S)-3-propionylamino-cyclopentyl)-amide]",0.3 to 3
14,"CCC(=O)N[C@H]1CC[C@@H](N(C)C(=O)c2ccc(-c3nc4ccccc4s3)cc2)C1 [Compound A6, 4-benzothiazol-2-yl-N-methyl-N-((1R,3S)-3-propionylamino-cyclopentyl)-benzamide]",< 0.3
15,"CN(C(=O)c1ccc(-c2nc3cccc(F)c3o2)cc1)[C@@H]1CC[C@H](NC(=O)C2CC2)C1 [Compound A50, N-[(1R,3S)-3-(cyclopropanecarbonyl-amino)-cyclopentyl]-4-(7-fluoro-benzoxazol-2-yl)-N-methyl-benzamide]",0.3 to 3
16,"COCC(=O)N[C@H]1CC[C@@H](N(C)C(=O)c2ccc(-c3nc4ccccc4o3)cc2)C1 [Compound A34, 4-benzoxazol-2-yl-N-[(1R,3S)-3-(2-methoxy-acetylamino)-cyclopentyl]-N-methyl-benzamide]",< 0.3
17,"CN(C(=O)c1ccc(-c2nc3ccccc3o2)cc1)[C@@H]1CC[C@H](NC(=O)[C@H]2CCCO2)C1 [Compound A40, (R)-tetrahydro-furan-2-carboxylic acid {(1S,3R)-3-[(4-benzoxazol-2-yl-benzoyl)-methyl-amino]-cyclopentyl}-amide]",< 0.3
18,"CCC(=O)N[C@H]1CC[C@@H](N(C)C(=O)c2ccc(-c3ccc4c(ccn4C)c3)cc2F)C1 [Compound A111, 2-fluoro-N-methyl-4-(1-methyl-1H-indol-5-yl)-N-((1R,3S)-3-propionylamino-cyclopentyl)-benzamide]",< 0.3

# Further lines, results first:
row,IC50 [µM],Structure (SMILES)
1,< 0.3,"CCC(=O)N[C@H]1CC[C@@H](N(C)C(=O)c2ccc(-c3ccc(OC)cc3C)cc2)C1 [Compound A65, 4′-methoxy-2′-methyl-biphenyl-4-carboxylic acid methyl-((1R,3S)-3-propionylamino-cyclopentyl)-amide]"
2,0.3 to 3,"CCC(=O)N[C@H]1CC[C@@H](N(C)C(=O)c2ccc(-c3cc4cn[nH]c4cc3C)cn2)C1 [Compound A103, 5-(6-methyl-1H-indazol-5-yl)-pyridine-2-carboxylic acid methyl-((1R,3S)-3-propionylamino-cyclopentyl)-amide]"
3,< 0.3,"CCC(=O)N[C@H]1CC[C@@H](N(C)C(=O)c2cnc(-c3ccc4[nH]ccc4c3)cn2)C1 [Compound A132, 5-(1H-indol-5-yl)-pyrazine-2-carboxylic acid methyl-((1R,3S)-3-propionylamino-cyclopentyl)-amide]"
4,< 0.3,"CCC(=O)N[C@H]1CC[C@@H](N(C)C(=O)c2ccc(-c3nc4ccccc4[nH]3)cc2)C1 [Compound A7, 4-(1H-benzimidazol-2-yl)-N-methyl-N-((1R,3S)-3-propionylamino-cyclopentyl)-benzamide]"
5,< 0.3,"CCC(=O)N[C@H]1CC[C@@H](N(C)C(=O)c2ccc(-c3ccc4[nH]ccc4c3C)nn2)C1 [Compound A150, 6-(4-methyl-1H-indol-5-yl)-pyridazine-3-carboxylic acid methyl-((1R,3S)-3-propionylamino-cyclopentyl)-amide]"
6,< 0.3,"CCC(=O)N[C@H]1CC[C@@H](N(C)C(=O)c2ccc(-c3ccc(C)cc3)cc2)C1 [Compound A73, 4′-methyl-biphenyl-4-carboxylic acid methyl-((1R,3S)-3-propionylamino-cyclopentyl)-amide]"
7,< 0.3,"CCC(=O)N[C@H]1CC[C@@H](N(C)C(=O)c2ccc(-c3ccc4[nH]nnc4c3)cc2)C1 [Compound A91, 4-(1H-benzotriazol-5-yl)-N-methyl-N-((1R,3S)-3-propionylamino-cyclopentyl)-benzamide]"
8,< 0.3,"CCC(=O)N[C@H]1CC[C@@H](N(C)C(=O)c2ccc(-c3cc4cn[nH]c4cc3C)cc2)C1 [Compound A102, N-methyl-4-(6-methyl-1H-indazol-5-yl)-N-((1R,3S)-3-propionylamino-cyclopentyl)-benzamide]"
9,< 0.3,"CCC(=O)N[C@H]1CC[C@@H](N(C)C(=O)c2ccc(-c3ccc4[nH]ccc4c3)cc2F)C1 [Compound A106, 2-fluoro-4-(1H-indol-5-yl)-N-methyl-N-((1R,3S)-3-propionylamino-cyclopentyl)-benzamide]"
10,< 0.3,"CCC(=O)N[C@H]1CC[C@@H](N(C)C(=O)c2ccc(-c3ccc4[nH]ncc4c3C)cc2)C1 [Compound A126, N-methyl-4-(4-methyl-1H-indazol-5-yl)-N-((1R,3S)-3-propionylamino-cyclopentyl)-benzamide]"
11,0.3 to 3,"CCC(=O)N[C@H]1CC[C@@H](N(C)C(=O)c2ccc(-c3cc(F)c4[nH]ccc4c3)nc2)C1 [Compound A134, 6-(7-fluoro-1H-indol-5-yl)-N-methyl-N-((1R,3S)-3-propionylamino-cyclopentyl)-nicotinamide]"
12,< 0.3,"CCC(=O)N[C@H]1CC[C@@H](N(C)C(=O)c2ccc(-c3nc4ccccc4o3)cn2)C1 [Compound A16, 5-benzoxazol-2-yl-pyridine-2-carboxylic acid methyl-((1R,3S)-3-propionylamino-cyclopentyl)-amide]"
